The values below come from PMC9249127, “Bio-Evaluation of ^99mTc-Labeled Homodimeric Chalcone Derivative as Amyloid-β-Targeting Probe” (Frontiers in Medicine, 2022).

Each structure is given as a SMILES string. Where two headings read alike, the source gives them in different places.

In one data set the test system is HEK 293 cells. As to the kind of experiment: Cytotoxicity MTT assay. Format: cell-based, Human. As to conditions: 0.5–50 μg/mL, after 48 h of incubation. On the procedure:
(§1) In vitro cytotoxicity studies were performed for DT(Ch)2 in the concentration range of 0.5–50 μg/mL against HEK 293 cell lines seeded in 96-well plates. The experimental procedure followed was in accordance with the previously reported literature ([32]). […] Cell cultures were grown in DMEM (Dulbecco’s modified eagle medium, high glucose) and the culture was supplemented with 1% penicillin streptomycin and 10% FBS (fetal bovine serum). The cells were incubated with different compound concentrations in a 5% CO2 incubator at 37°C. Following the addition of MTT [3-(4,5-dimethylthiazol-2-yl)-2,5-diphenyl-2H-tetrazolium bromide] to each cell (100 μL), the systems were incubated for an additional 4 h. The cell viability was reported in accordance with the mitochondrial activity measured via absorbance at 570 nm. The experiments were performed in triplicates.

Another data set in a line: Cytotoxicity MTT assay. Format: cell-based, Human. As to conditions: human, HEK 293 cells, read-out: cell viability. On the procedure: as §1
The next data set is described as follows: Hemolysis assay. Format: cell-based. As to conditions: human, red blood cells (washed RBC pellet resuspended in PBS), pH 7.4; RBCs, 0.125–2 mg/mL of ligand. On the procedure:
In accordance with the previous literature, heparinized blood from healthy volunteers was used for the hemolysis assay ([33]). Blood serum was separated by centrifugation and the obtained RBC pellet was washed with PBS (pH = 7.4) repeatedly. The pellet was finally resuspended in PBS and added in equal amounts to different vials. Similarly, varying concentrations of the ligand in equal volume were incubated with the RBC pellet in the ratio of 8:2 at 37°C. The Triton X-100 and phosphate buffer saline as positive and negative control, respectively, were also incubated with RBCs under similar conditions. A total of 100 μL of solvent was centrifuged and removed at each time point: 15 min, 1, 2, 4, and 24 h. The absorbance of the supernatant was measured at 541 nm wavelength in a 96-well plate by a Synergy 2 Multi-Mode Reader (BioTek Instruments, United States). The experiments were carried out in triplicates and the extent of hemolysis was calculated according to the following formula:
Hemolysisratio=(λ(test)-λ(negativecontrol))/(λ(positivecontrol)-λ(negativecontrol))×100%

The conditions of data set [1]: cited from earlier work.
For the next data set, the target named is Aβ aggregates. The note with it: cited from earlier work.

For `CN(C)c1ccc(/C=C/C(=O)c2ccc(OCCNC(=O)CN(CCN(CCN(CC(=O)O)CC(=O)NCCOc3ccc(C(=O)/C=C/c4ccc(N(C)C)cc4)cc3)CC(=O)O)CC(=O)O)cc2)cc1` [DT(Ch)2, 6,9-bis(carboxymethyl)-14-(4-[(E)-3-(4-(dimethylamino)phenyl)acryloyl]phenoxy)-3-(2-[(2-(4-[(E)-3-(4-(dimethylamino)phenyl)acryloyl]phenoxy)ethyl)amino]-2-oxoethyl)-11-oxo-3,6,9,12-tetraazatetradecanoic acid], the “toxicity (MTT assay)” value in the data set with HEK 293 cells is below 17%. For the same compound, the viability in the data set “Cytotoxicity MTT assay” (throughout the concentration range and observation time) is around 85%; in the data set “Cytotoxicity MTT assay” (up to 24 h), 88 to 95%. The hemolysis in the data set “Hemolysis assay” was below 5%.

As to `CNc1ccc(-c2nc3ccc(O)cc3s2)cc1` [PiB, Pittsburgh compound B], the “ratio of brain2min/brain30min” value in data set [1] is listed as 12. As for `O=C([O-])CN(CCN(CC(=O)[O-])CC(=O)[O-])CCN(CC(=O)[O-])CC(=O)[O-].[99Tc+4]` [^99mTc–DTPA], the brain uptake in data set [1] (after 30 min, known value, no reference given) was 0.04%. For the compound `CN(C)c1ccc(C=CC(=O)c2ccc(I)cc2)cc1` [^125I-DMIC], at Aβ aggregates, the Kd is 4.2 nM.
